These results are taken from PubChem BioAssay AID720578 (The Scripps Research Institute Molecular Screening Center, 2013).

Values joined by “and” are separate entries in the source; they are usually repeats but may differ in a detail not shown here. Equal entries are not always repeated. Active and inactive are the calls of the source. No rule for the calls is given here. Some results are limits rather than exact numbers.

The assay deals with Crimean-Congo hemorrhagic fever virus L protein viral ovarian tumor (vOTU) protease domain. Put plainly: CCHFV vOTU protease inhibitor potency, dose response, biochemical, fluorescence, Pep-AMC substrate (AID 720578). Conditions: recombinant CCHFV vOTU, Pep-AMC fluorescence cleavage.
For the compound `CCOC(=O)C1=C(COC(=O)c2ccc([N+](=O)[O-])s2)NC(=O)NC1C` (configuration not stated), the IC50 was 7.84 µM.

`CC1=C(SCc2ccccc2)C(=O)c2ccccc2C1=O`: the IC50 is 2.51 µM.

With `COc1ccc(NC(=S)Nc2ccc3nsnc3c2)cc1`, the IC50 was 6.79 µM.

As for `Oc1ccccc1CNc1cccc2cccnc12`, the IC50 is 9.96 µM.

For `Cc1ccc(NC2=C/C(=N/S(=O)(=O)c3cccs3)c3ccccc3C2=O)cc1`, the IC50 is 0.405 µM.

For `Cc1ccc2c(c1C)-c1c(ccc(C)c1C)C(=O)C2=O`, the IC50 is 7.79 µM.

Turning to `Cc1ccccc1NC1=C/C(=N\S(=O)(=O)c2cccs2)c2ccccc2C1=O`, the IC50 was 0.249 µM.

In the case of `Cc1ccccc1-c1cc2c(nn1)-c1ccccc1C2=O`, the IC50 is 0.457 µM.

With `O=C(COC(=O)c1ccc([N+](=O)[O-])s1)Nc1ccc(F)cc1`, the IC50 was 7.79 µM.

In the case of `O=C1OC(Nc2cc(Br)cc3cccnc23)c2ccccc21` (configuration not stated), the IC50 was 5.23 µM.

As to `O=C1C(Nc2ccccc2)=C(N2CCCCC2)C(=O)c2ccccc21`, the IC50 is 4.54 µM.

As to `CC(=O)Nc1ccc(S(=O)(=O)NC2=C(N3CCN(c4ccc(F)cc4)CC3)C(=O)c3ccccc3C2=O)cc1`, the IC50 entry is “inactive”.

In the case of `COc1cc(C(=O)c2nccc3cc(OC)c(OC)cc23)c([N+](=O)[O-])cc1OC`, the IC50 was 1.05 µM.

For `CCC(CNc1cc(OC)cc2cccnc12)NC1CCCCC1` (configuration not stated), the IC50 is 6.32 µM.

In the case of `O=S(=O)(N=C1C=CC(=NS(=O)(=O)c2ccccc2)c2ccccc21)c1ccccc1`, the IC50 entry was “inactive”.

Take `NC1=CC(=O)C(=O)c2cccnc21`: the IC50 is 1.85 µM.

As for `CCCCCCCCCCOC(=O)Cn1c(COc2ccc(Cl)cc2)[n+](C)c2ccccc21`, the IC50 entry was “inactive”.

Regarding `CCCCn1c(NS(=O)(=O)c2ccccc2)c(S(=O)(=O)c2ccc(C)cc2)c2nc3ccccc3nc21`, the IC50 is > 115 µM (inactive).

Consider `CN=c1sc2c(n1C)C(=O)c1ccccc1C2=O`, for which the IC50 is 1.78 µM.

Regarding `O=C1Cc2ccccc2C(=O)N1CCc1ccccc1`, the IC50 is 1.14 µM.

Regarding `O=S(=O)(Nc1cc2nc3ccccc3nc2n1Cc1ccccc1)c1ccc(Cl)cc1`, the IC50 was 2.57 µM.

For `C[n+]1c2cc(N)ccc2cc2ccc(N)cc21`, the IC50 is 0.945 µM and 3.14 µM.

On to `COc1cc2c(cc1OC)-c1c(OC)c(OC)cc3c1C(C2)N(C)CC3` (configuration not stated), for which the IC50 was > 115 µM (inactive).

With `CCCNC1=C(N(C(C)=O)c2cccc(F)c2)C(=O)c2ccccc2C1=O`, the IC50 result is “inactive”.

In the case of `C[n+]1c(-c2ccccc2)c2cc(N)ccc2c2ccc(N)cc21`, the IC50 was 3.68 µM.

In the case of `Cc1oc2c(c1C(=O)O)C(=O)c1ccccc1C2=O`, the IC50 was 9.12 µM.

With `O=C(NCCCO)c1ccc2nc(-c3ccco3)c(-c3ccco3)nc2c1`, the IC50 is 9.45 µM.

Turning to `N#CC1=C(S)N(c2ccccc2)C(c2ccc(-c3ccc(Cl)c(Cl)c3)o2)NC1=O` (configuration not stated), the IC50 result is “inactive”.

Consider `NS(=O)(=O)c1ccc(NC2=CC(=O)C(=O)c3ccccc32)cc1`, for which the IC50 was 4.85 µM.

Regarding `Cc1ccc(N2C(=O)[C@@H]3[C@H](C2=O)C2c4ccccc4C=CN2[C@@H]3C(=O)c2ccco2)cc1` (some centres not stated), the IC50 was 4.21 µM.

As for `CCc1ccc(S(=O)(=O)Nc2cc(SCC(=O)O)c(O)c3ccccc23)cc1`, the IC50 was 7.64 µM.

`CC(=O)N(C1=C(Cl)C(=O)c2ccccc2C1=O)c1ccc(C(=O)O)cc1`: the IC50 was 2.74 µM.

`O=C1C=C(N2CCOCC2)c2ccccc2C1=O`: the IC50 was 4.21 µM.

Regarding `O=C(/C=C/c1ccc([N+](=O)[O-])s1)N1CCCCC1`, the IC50 result is “inactive”.

Take `O=C1Nc2ccc([N+](=O)[O-])cc2C1=Nc1cccc(CO)c1`: the IC50 is 8.78 µM.

As to `Cc1c(C=O)c(Cl)n(C)c(=O)c1C#N`, the IC50 entry is “inactive”.

On to `O=C(O)c1cc(O)c2c(c1)[C@H]([C@H]1c3cc(C(=O)O)cc(O)c3C(=O)c3c(O[C@@H]4O[C@H](CO)[C@@H](O)[C@H](O)[C@H]4O)cccc31)c1cccc(OC3O[C@H](CO)[C@@H](O)[C@H](O)[C@H]3O)c1C2=O` (some centres not stated), for which the IC50 was 6.47 µM.

`O=C(O)c1ccc(NC2=C(n3nnc4ccccc43)C(=O)c3ccccc3C2=O)cc1`: the IC50 was 4.59 µM.

`O=C1C=C(O)c2[nH]c(=O)ccc2C1=O`: the IC50 is 4.26 µM.

Take `C=CCN1C=CC(=C/C=C(/C#N)C(=O)OCC)C=C1`: the IC50 entry was “inactive”.

As for `COc1ccccc1Nc1cc2cc(Br)ccc2c(=O)[nH]1`, the IC50 is 1.05 µM.

Take `COc1cc(NC(C)CCCN)c2ncccc2c1` (configuration not stated): the IC50 result is “inactive”.

For `COc1ccc(CNC(=O)c2c(C)oc3c2C(=O)c2ccccc2C3=O)cc1`, the IC50 was 8.2 µM.

For `C=CCN(CC=C)C(=S)Nc1ccc2nsnc2c1`, the IC50 entry was “inactive”.

As to `CN1/C(=C\C=C2C(=O)NC(=O)NC2=O)C(C)(C)c2ccccc21`, the IC50 entry was “inactive”.

Regarding `CCOc1ccc2noc3c2c1C(=O)c1ccccc1-3`, the IC50 entry was “inactive”.

In the case of `O=C1C(SCCO)=C(SCCO)C(=O)c2ccccc21`, the IC50 was 2.15 µM.

With `C[n+]1c(-c2ccccc2)cc2c(=Cc3ccccc3)c3ccccc3n21`, the IC50 was 4.95 µM.

With `CCOC(=O)c1c2c(n(Cc3ccccc3)c1C)C(=O)C(=O)c1ccccc1-2`, the IC50 was 2.16 µM.

For the compound `O=C(O)CCCNc1cc(N2CCN(C(=O)c3ccco3)CC2)c2noc3c2c1C(=O)c1ccccc1-3`, the IC50 is 5.72 µM.

For the compound `O=C1C=C(Nc2ccccc2)c2ccccc2C1=O`, the IC50 was 6.87 µM.

In the case of `CCOC(=O)N1CCN(C2=C(NS(=O)(=O)c3ccc(C)cc3)C(=O)c3ccccc3C2=O)CC1`, the IC50 entry was “inactive”.

On to `CCc1cc[n+](C2=C([O-])c3ccccc3C(=O)/C2=N\S(=O)(=O)c2cccs2)cc1`, for which the IC50 was 4.4 µM.

`COc1cc2c(cc1OC)-c1c(OC)c(OC)cc3c1[C@H](C2)N(C)CC3`: the IC50 is 7 µM.

As to `NC1=C(Cl)C(=O)c2ccc(S(N)(=O)=O)cc2C1=O`, the IC50 is 0.127 µM.

`Cn1nc(-c2ccccn2)nc2c(=O)n(C)c(=O)nc1-2`: the IC50 is 0.366 µM.

`CC(=O)NC1=C(N(C)C2CCS(=O)(=O)C2)C(=O)c2ccccc2C1=O` (configuration not stated): the IC50 is 8.88 µM.

Turning to `CC1COCC(C)N1C1=C(Cl)C(=O)c2ccccc2C1=O` (configuration not stated), the IC50 was 5.07 µM.

As to `CCCCn1c(NS(=O)(=O)c2ccccc2)c(C(=O)OCC)c2nc3ccccc3nc21`, the IC50 is > 115 µM (inactive).

Consider `O=C1C(=O)c2cccnc2-c2ncccc21`, for which the IC50 is 5.38 µM.

For `Nc1cc2c(cc1Br)[nH]c(=O)c1ccccc12`, the IC50 is 3.2 µM.

Consider `CC(NC1=CC(=O)c2cccnc2C1=O)C(O)c1ccccc1` (configuration not stated), for which the IC50 was 1.94 µM.

Consider `O=C(OCc1nnc(-c2ccccc2)o1)c1ccc([N+](=O)[O-])s1`, for which the IC50 was 7.52 µM.

On to `CN(C)c1ccc(C=c2c3cc(O)ccc3n3c2cc(-c2ccccc2)[n+]3C)cc1`, for which the IC50 entry was “inactive”.

In the case of `O=[N+]([O-])c1ccccc1-c1ccc(C(=S)N2CCCC2)o1`, the IC50 entry is “inactive”.

Turning to `CC1CCCC(NC(=O)COC(=O)c2ccc([N+](=O)[O-])s2)C1C` (configuration not stated), the IC50 is 9.22 µM.

Take `Cn1c(=O)c2c(-c3ccccc3)n(-c3ccc(N)cc3)cc2n(C)c1=O`: the IC50 was 4.53 µM.

Turning to `COc1cc(CCNC2=CC(=O)c3ncccc3C2=O)ccc1O`, the IC50 was 5.25 µM.

Regarding `Cc1c(Cl)cnc(NC(=O)COC(=O)c2ccc([N+](=O)[O-])s2)c1Cl`, the IC50 is 7.08 µM.

For `COc1ccc(N2C(=O)[C@@H]3[C@H](C2=O)[C@H]2c4ccccc4C=CN2[C@@H]3C(C)=O)cc1`, the IC50 entry was “inactive”.

As for `CCOCCCNC1=C(Cl)C(=O)c2ccccc2C1=O`, the IC50 result is “inactive”.

Consider `O=C1NNC(c2ccccc2)=N/C1=C\c1ccccc1Cl`, for which the IC50 entry was “inactive”.

For the compound `O=C(N/N=C1\C/C(=N\NC(=O)c2ccncc2)c2ccccc21)c1ccncc1`, the IC50 is 0.701 µM.

In the case of `CC[C@H](CO)Oc1cc(NCc2cccc(N)c2)c2ncn(C(C)C)c2c1`, the IC50 is 6.52 µM.

In the case of `COc1cccc2c1C(=O)c1c(O)c3c(c(O)c1C2=O)C[C@@](O)(C(=O)CO)C[C@@H]3O[C@H]1C[C@H](N)[C@H](O)[C@H](C)O1`, the IC50 entry is “inactive”.

On to `O=C1Cc2ccccc2C(=O)N1`, for which the IC50 was 0.396 µM.

As for `Cc1cc2c(cc1C)C(=O)C(Br)=C(N)C2=O`, the IC50 is 5.56 µM.

For `COCCN1C=C2C(=O)C(C)(OC(=O)C3CCCC3)C(=O)C(c3ccccc3)=C2C=C1CCCC(=O)OC` (configuration not stated), the IC50 result was “inactive”.

`CC(C)=CCC1=C(OCC(=O)O)C(=O)c2ccccc2C1=O`: the IC50 is 6.79 µM.

`O=C1C=C(N2CC2)c2ccccc2C1=O`: the IC50 is 2.73 µM.

Consider `COc1ccc(/C=N/NC(=O)c2nn(-c3ccccc3)c(=O)c3c(N)scc23)cc1`, for which the IC50 is 8.43 µM.

Consider `NC(=S)N=Nc1c(O)cc(O)c2[nH]c(=O)ccc12`, for which the IC50 is 9.78 µM.

`O=C1C(=NO)CCc2ccccc21`: the IC50 is 3.36 µM.

Regarding `O=C1C=C(Nc2ccccc2C(=O)O)c2ccccc2C1=O`, the IC50 is 3.59 µM.

In the case of `Cc1nc2c(o1)C(=O)c1ccccc1C2=Nc1ccccc1`, the IC50 is 7.89 µM.

On to `NC1=C(Br)C(=O)c2ccccc2C1=O`, for which the IC50 is 4.48 µM.

On to `Cc1cccc(NC(=O)c2sc3nc4c(c(-c5cccs5)c3c2N)CN(C)CC4)c1`, for which the IC50 entry is “inactive”.

Take `COC(CNC(=O)c1ccc2c3c(onc13)-c1ccccc1C2=O)OC`: the IC50 was 3.5 µM.

Regarding `O=C1C=C(NCc2ccccc2)c2ccccc2C1=O`, the IC50 was 6.23 µM.

As for `O=C(O)CSc1cc(NS(=O)(=O)c2cccc([N+](=O)[O-])c2)c2ccccc2c1O`, the IC50 is 2.44 µM.

Consider `CN1CCN(C2=C(Cl)C(=O)c3ccccc3C2=O)CC1`, for which the IC50 was 0.276 µM.

For `S=C(Nc1ccc(Cl)cc1)Nc1cccc2cnccc12`, the IC50 was 6.44 µM.

Take `COc1ccc(/C=N/NC(=O)c2nn(-c3ccc(Cl)cc3)c(=O)c3c(N)scc23)cc1`: the IC50 entry was “inactive”.

Take `CCCCCCCCCCCCCCCC[n+]1ccccc1`: the IC50 result was “inactive”.

Consider `CN(C)c1cccc2c1c(NS(=O)(=O)c1cn(C)cn1)nn2C`, for which the IC50 result is “inactive”.

Turning to `CC1OC(CC(=O)O)CC2=C1C(=O)c1c(O)cccc1C2=O` (configuration not stated), the IC50 is 3.82 µM.

As for `COC1=CC(=O)c2c(ccc3ncnc(N)c23)C1=O`, the 50% inhibitory concentration (IC50) is 0.396 µM.

By IC50 is commonly meant the concentration at which inhibition is half-maximal.
